Among the data in patent US10035790B2, “RORγ modulators” (BRISTOL-MYERS SQUIBB COMPANY, priority 2012, dated 2018) are IC50 values, retold here.

For orientation: IC50 means the midpoint of a concentration-inhibition curve.

The target of the assay is T1, ligand binding domain of human RORγ (A262-S507) (Homo sapiens, UniProt P51449).
T1 construct: made in house; host or cells: E. coli
T1 sequence (P51449 262-507): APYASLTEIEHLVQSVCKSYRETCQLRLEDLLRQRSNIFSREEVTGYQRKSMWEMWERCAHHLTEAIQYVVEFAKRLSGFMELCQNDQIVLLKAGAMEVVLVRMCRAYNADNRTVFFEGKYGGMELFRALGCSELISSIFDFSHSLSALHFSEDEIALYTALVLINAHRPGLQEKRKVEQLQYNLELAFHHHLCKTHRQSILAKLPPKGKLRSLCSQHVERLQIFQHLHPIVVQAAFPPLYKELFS
Briefly: General RORγ SPA binding assay (competition with [3H]25-hydroxycholesterol). As to conditions: RORγ SPA binding assay, inhibition of [3H]25-hydroxycholesterol binding; read-out: IC50. As to the method: Example 2 General RORγ SPA Binding Assay
The binding of potential ligands to RORγ is measured by competition with [^3H]25-hydroxycholesterol using a scintillation proximity assay (SPA) binding assay. The ligand binding domain of human RORγ (A262-S507) with an N-terminal His tag is expressed in E. coli and purified using nickel affinity chromotography. 50 nM RORγ (A262-S507) is incubated with test compound at varying concentrations for 15 min at room temperature in PBS buffer containing 0.5% fatty acid free BSA. […] of [^3H]25-hydroxycholesterol is then added, and the reaction is incubated for 15 min. 4 mg/mL of Ysi Copper HIS-TAG SPA Beads (Perkin Elmer) are added, and the mixture is incubated for 30 min. The reaction is read on a MicroBeta Trilux scintillation plate reader (Perkin Elmer). IC50 values are determined from the percentage inhibition of [^3H]25-hydroxycholesterol binding.
On to `CC(O)(COc1ccnc(C(F)(F)F)n1)c1cnc(NC2CC2)nc1C1CCN(C(=O)Nc2c(F)cccc2F)CC1` (centres unmarked) [Compound D34, 4-[2-(Cyclopropylamino)-5-(1-hydroxy-1-methyl-2-{[2-(trifluoromethyl)pyrimidin-4-yl]oxy}ethyl)pyrimidin-4-yl]-N-(2,6-difluorophenyl)piperidine-1-carboxamide], for which the half-maximal inhibitory concentration (IC50) was 15 nM.

For `Cc1nc(C)c(-c2nnc(-c3ccnc(C(F)(F)F)n3)s2)c(C2CCN(C(=S)Cc3c(F)cccc3F)CC2)n1` [Compound C39, 4-{1-[2-(2,6-Difluorophenyl)ethanethioyl]piperidin-4-yl}-2,6-dimethyl-5-{5-[2-(trifluoromethyl)pyrimidin-4-yl]-1,3,4-thiadiazol-2-yl}pyrimidine], the IC50 was 4520 nM. As for `Cc1nc(C)c(-c2nnc(-c3ccnc(C(F)(F)F)n3)o2)c(C2CCN(C(=O)Nc3c(F)cccc3C(F)(F)F)CC2)n1` [Compound C40, 4-(2,6-Dimethyl-5-{5-[2-(trifluoromethyl)pyrimidin-4-yl]-1,3,4-oxadiazol-2-yl}pyrimidin-4-yl)-N-[2-fluoro-6-(trifluoromethyl)phenyl]piperidine-1-carboxamide], the figure is 47.5 nM.

For `Cc1nc(C2CCN(C(=O)Cc3c(F)cccc3F)CC2)c(/C=N/Oc2cccc(C(F)(F)F)c2)c(=O)[nH]1` [Compound I6, (E)-4-(1-(2-(2,6-Difluorophenyl)acetyl)piperidin-4-yl)-2-methyl-6-oxo-1,6-dihydropyrimidine-5-carbaldehyde O-3-(trifluoromethyl)phenyl oxime], the half-maximal inhibitory concentration (IC50) turned out to be 60.9 nM. Take `COc1ncc(C(C)(O)COc2cccc(C(F)(F)F)n2)c(C2CCN(C(=O)Nc3c(F)cccc3F)CC2)n1` (centres unmarked) [Compound D45, N-(2,6-Difluorophenyl)-4-[5-(1-hydroxy-1-methyl-2-{[6-(trifluoromethyl)pyridin-2-yl]oxy}ethyl)-2-(methyloxy)pyrimidin-4-yl]piperidine-1-carboxamide]: the IC50 is 3.4 nM. As for `Cc1ncc(C(=O)NCc2ccc(Cl)nc2)c(C2CCN(C(=O)Cc3c(F)cccc3F)CC2)n1` [Compound A71, N-((6-chloropyridin-3-yl)methyl)-4-(1-(2-(2,6-difluorophenyl)acetyl)piperidin-4-yl)-2-methylpyrimidine-5-carboxamide], the figure is 242 nM; as for `O=C(Cc1c(F)cccc1F)N1CCC(c2ncncc2C(=S)NCc2ccc(Cl)c(Cl)c2)CC1` [Compound L1, N-(3,4-Dichlorobenzyl)-4-(1-(2-(2,6-difluorophenyl)acetyl)piperidin-4-yl)pyrimidine-5-carbothioamide], 81 nM; as for `CN(C)CCNc1ncc(C(=O)NCc2cccc(Cl)c2)c(C2CCN(C(=O)Cc3c(F)cccc3F)CC2)n1` [Compound A97, N-(3-chlorobenzyl)-4-(1-(2-(2,6-difluorophenyl)acetyl)piperidin-4-yl)-2-((2-(dimethylamino)ethyl)amino) pyrimidine-5-carboxamide], 290 nM. The figure for `Cc1ncc(C(=O)COc2cccc(C(F)(F)F)n2)c(C2CCN(C(=O)Nc3c(F)cccc3F)CC2)n1` [Compound M4, N-(2,6-Difluorophenyl)-4-[2-methyl-5-({[6-(trifluoromethyl)pyridin-2-yl]oxy}acetyl)pyrimidin-4-yl]piperidine-1-carboxamide] is 6.5 nM; for `CNC(COc1cccc(C(F)(F)F)n1)c1cnc(N)nc1C1CCN(C(=O)Nc2c(F)cccc2F)CC1` (centres unmarked) [Compound N27, 4-{2-Amino-5-[1-(methylamino)-2-{[6-(trifluoromethyl)pyridin-2-yl]oxy}ethyl]pyrimidin-4-yl}-N-(2,6-difluorophenyl)piperidine-1-carboxamide] it is 18.2 nM. As for `Cc1ncc(C(C)(O)CNc2cccc(C(F)(F)F)n2)c(C2CCN(C(=O)Nc3c(F)cccc3F)CC2)n1` (centres unmarked) [Compound D16, N-(2,6-Difluorophenyl)-4-[5-(1-hydroxy-1-methyl-2-{[6-(trifluoromethyl)pyridin-2-yl]amino}ethyl)-2-methylpyrimidin-4-yl]piperidine-1-carboxamide], the figure is 12.3 nM. For `Cc1cc(C)cc(CNC(=O)c2c(C3CCN(C(=O)Cc4c(F)cccc4F)CC3)nc(C)[nH]c2=O)c1` [Compound I3, 4-(1-(2-(2,6-Difluorophenyl)acetyl)piperidin-4-yl)-N-(3,5-dimethylbenzyl)-2-methyl-6-oxo-1,6-dihydropyrimidine-5-carboxamide], the concentration for half-maximal inhibition (IC50) is 10.7 nM. `Cc1ncc(C(=O)NCc2ccnc(C(F)(F)F)c2)c(C2CCN(C(=O)Cc3c(F)cccc3F)CC2)n1` [Compound A47, 4-(1-(2-(2,6-difluorophenyl)acetyl)piperidin-4-yl)-2-methyl-N-((2-(triflnoromethyl)pyridin-4-yl)methyl)pyrimidine-5-carboxamide]: the IC50 was found to be 6.3 nM. The figure for `C/C(=N/Oc1cccc(C(F)(F)F)c1)c1cnc(C)nc1C1CCN(C(=O)Cc2c(F)cccc2F)CC1` [Compound B4, (Z)-2-(2,6-Difluorophenyl)-1-(4-(2-methyl-5-(1-(3-(trifluoromethyl)phenoxyimino)ethyl)pyrimidin-4-yl)piperidin-1-yl)ethanone] is 137 nM; for `Cc1cc(C)cc(CNC(=O)c2cnc(C)nc2C2CCN(C(=O)Nc3c(F)cccc3F)CC2)c1` [Compound A107, 4-(1-((2,6-Difluorophenyl)carbamoyl)piperidin-4-yl)-N-(3,5-dimethylbenzyl)-2-methylpyrimidine-5-carboxamide] it is 12.1 nM.

As to `Cc1nc(C)c(-c2ncc(-c3cccc(Cl)c3)o2)c(C2CCN(C(=O)Nc3c(F)cccc3F)CC2)n1` [Compound C67, 4-{5-[5-(3-Chlorophenyl)-1,3-oxazol-2-yl]-2,6-dimethylpyrimidin-4-yl}-N-(2,6-difluorophenyl)piperidine-1-carboxamide], the IC50 came out at 111 nM. The figure for `Cc1cc(C)cc(OCC(C)(O)c2cnc(C)nc2C2CCN(C(=O)Cc3c(F)cccc3F)CC2)c1` (centres unmarked) [Compound D11, 2-(2,6-Difluorophenyl)-1-(4-(5-(1-(3,5-dimethylphenoxy)-2-hydroxypropan-2-yl)-2-methylpyrimidin-4-yl)piperidin-1-yl)ethanone] is 14.5 nM; for `Cc1cc(C)cc(CNC(=O)c2cnc(C)nc2C2CCN(C(=O)C(C)(C)c3ccccc3)CC2)c1` [Compound A35, N-(3,5-dimethylbenzyl)-2-methyl-4-(1-(2-methyl-2-phenylpropanoyl)piperidin-4-yl)pyrimidine-5-carboxamide] it is 2970 nM. As for `Cc1cc(C)cc(CNC(=O)c2cnc(C)nc2C2CCN(C(=O)Cc3c(F)cccc3F)CC2)c1` [Compound A1], the figure is 4.7 nM. In the case of `Cc1nc(C)c(-c2nnc(-c3ccnc(C(F)(F)F)n3)o2)c(C2CCN(C(=O)Cc3c(F)cccc3F)CC2)n1` [Compound C5, 4-{1-[(2,6-Difluorophenyl)acetyl]piperidin-4-yl}-2,6-dimethyl-5-{5-[2-(trifluoromethyl)pyrimidin-4-yl]-1,3,4-oxadiazol-2-yl}pyrimidine], the IC50 was determined as 6.3 nM. The figure for `CCC/C(=N/Oc1cccc(C(F)(F)F)c1)c1c(C)nc(C)nc1C1CCN(C(=O)Cc2c(F)cccc2F)CC1` [Compound B49, (1Z)-1-(4-{1-[(2,6-difluorophenyl)acetyl]piperidin-4-yl}-2,6-dimethylpyrimidin-5-yl)butan-1-one O-[3-(trifluoromethyl)phenyl]oxime] is 1970 nM; for `Cc1ncc(C(C)(F)COc2cccc(C(F)(F)F)n2)c(C2CCN(C(=O)Nc3c(F)cccc3F)CC2)n1` (centres unmarked) [Compound E12, N-(2,6-Difluorophenyl)-4-[5-(1-fluoro-1-methyl-2-{[6-(trifluoromethyl)pyridin-2-yl]oxy}ethyl)-2-methylpyrimidin-4-yl]piperidine-1-carboxamide] it is 11 nM; for `CSc1ncc(/C(C)=N/Oc2cccc(C(F)(F)F)c2)c(C2CCN(C(=O)Nc3c(F)cccc3F)CC2)n1` [Compound B50, N-(2,6-Difluorophenyl)-4-{2-(methylthio)-5-[(1E)-N-{[3-(trifluoromethyl)phenyl]oxy}ethanimidoyl]pyrimidin-4-yl}piperidine-1-carboxamide] it is 445 nM.

Take `C/C(=N\Oc1cccc(C(F)(F)F)n1)c1cnc(C)nc1C1CCN(C(=O)Cc2c(F)cccc2F)CC1` [Compound B19, (E)-2-(2,6-difluorophenyl)-1-(4-(2-methyl-5-(1-(((6-(trifluoromethyl)pyridin-2-yl)oxy)imino)ethyl)pyrimidin-4-yl)piperidin-1-yl)ethanone]: the IC50 was determined as 13.9 nM. The figure for `Cc1cc(C)cc(CNC(=O)c2cnc(C)nc2C2CCN(C(=O)Cc3ccccc3[N+](=O)[O-])CC2)c1` [Compound A15, N-(3,5-dimethylbenzyl)-2-methyl-4-(1-(2-(2-nitrophenyl)acetyl)piperidin-4-yl)pyrimidine-5-carboxamide] is 70 nM; for `CC(=O)NCC(O)(COc1cccc(C(F)(F)F)n1)c1cnc(C)nc1C1CCN(C(=O)Nc2c(F)cccc2F)CC1` (centres unmarked) [Compound N37, 4-{5-[2-(Acetylamino)-1-hydroxy-1-({[6-(trifluoromethyl)pyridin-2-yl]oxy}methyl)ethyl]-2-methylpyrimidin-4-yl}-N-(2,6-difluorophenyl)piperidine-1-carboxamide] it is 36.9 nM.
